# Assay results: patent US20120046246A1, “METHODS FOR TREATING OSTEOCLAST-RELATED DISEASE, COMPOUNDS AND COMPOSITIONS THEREOF” (University of Florida Research Foundation, priority 2008, published 2012)
# Assays:
# [1] = test system: mouse marrow osteoclasts on bone slices; assay: bone resorption pitting quantified by scanning electron microscopy; type: cell-based; parameters: dose or concentration left out as unconfirmed; details: 5 Days
# Description: Mouse marrow osteoclasts were grown to maturity for 5 Days then scraped and plated on bone slices treated with bis-enoxacin at the concentrations of 30 mM, 10 mM and 1 mM respectively. After 5 Days, the cells were removed and pitting was quantified by scanning electron microscopy.
# mouse marrow osteoclasts = assay: actin ring count on bone slices pre-treated with bis-enoxacin; type: cell-based; details: bone slices pre-treated at 10 mM and 1 mM; 3 Days of culture
# Description: Bone slices were incubated with bis-enoxacin at the concentrations of 10 mM and 1 mM respectively. After a 1 Day incubation, the slices were washed 4 times over a period of 24H. Mouse marrow osteoclasts were then plated on the slices, and after 3 Days of culture the cells were fixed and the number of actin rings (a marker for active osteoclasts) was counted.
# [2] = test system: osteoclast formation in mouse marrow cultures; assay: TRAP staining of mouse marrow cultures treated with bis-enoxacin; type: cell-based; parameters: unit of the concentration uncertain; details: 1 (unit uncertain)0 mM; 6 Days; TRAP positive cells
# Description: Mouse marrow cultures were treated with bis-enoxacin at the concentrations of 5 mM, 10 mM, 25 mM, 50 mM, and 100 mM respectively, for 6 Days in wells of a 24-well plate. The cells were fixed and stained for tartrate-resistant acid phosphatase (TRAP) activity which is a marker for osteoclasts. The number of TRAP positive mononuclear, multinuclear (2-10 nuclei) and giant (>10 nuclei) were counted.
# [3] = test system: osteoclast formation in calcitriol-stimulated mouse marrow cultures; assay: osteoclastogenesis stimulated by calcitriol in mouse marrow cultures; type: cell-based
# Description: Enoxacin and Binhib 2 were then tested for their effects on osteoclastogenesis stimulated by calcitriol in mouse marrow cultures. The mixed cultures represent a model for the complex interactions that regulate bone resorption in vivo. […] Osteoclast and osteoblast-containing mouse bone marrow cultures are obtained as above described. 4-6-week-old Swiss-Webster mice (Harlan, Indianapolis, Ind.) are sacrificed by cervical dislocation. Femurs and tibias are dissected free of adherent tissue; the marrow is expelled by cutting both bone ends and flushing the marrow cavity with MEM D10 using a 25-gauge needle. The marrow cells are washed twice and plated in 6 well plates at a concentration of 1×10^6 nucleated cells/cm^2 in MEM D1 0 containing 10 nM calcitriol. Cultures are fed on the third and fifth day of culture by replacing half of the medium with fresh medium containing calcitriol. Cultures are treated with enoxacin at 10 μM or vehicle control on Day 1, and when the media is refreshed.
# [4] = test system: ovariectomized (OVX) rats; assay: ovariectomized (OVX) rat model; type: in vivo; details: oral daily, 6 weeks
# Description: Enoxacin is tested in ovariectomized (OVX) rats that lose bone in a manner similar to that of postmenopausal women. This model has been widely and successfully utilized as an early pre-clinical model for osteoporotic disease (Pun, S., et al. Bone, 2000, 27:197-202; Wronski, T. J., et al. Endocrinology, 1993, 132:823-831; Wronski, T. J., et al. Endocrinology, 1988, 123:681-686; Iwaniec, U. T., et al. Endocrinology, 2002, 143:2515-2526). In this study, the effects of systemic administration of enoxacin are examined.
# In this study, ligands identified that block V-ATPase/F-actin interactions and bone resorption in vitro are advanced to in vivo testing in OVX rats. Female Sprague Dawley rats are subjected to sham surgery or ovariectomized at 3 months of age (see the preceding references). On the day after surgery, groups of sham operated control and OVX rats are injected subcutaneously (SC) with vehicle or treated with vehicle via oral gavage. A second group of OVX rats are injected SC 3 days/week with 17β-estradiol (Sigma, St. Louis, Mo.) at a dose of 10 μg/kg to inhibit bone resorption and prevent cancellous bone loss. The animals are treated orally with daily doses of enoxacin including 10, 100 and 400 mg/kg body weight. Each group consist of 10 rats. […] Due to the potential for enoxacin to affect intestinal flora, rats are weighed weekly and closely monitored for weight loss and diarrhea. […]
# [5] = target: T1, V-ATPase interaction with microfilaments (F-actin) (Mus musculus, UniProt P62814); assay: immunoprecipitation of V-ATPase from soluble osteoclast extracts; details: control extracts treated after homogenization, prior to immunoprecipitation
# T1 construct: endogenous in cells; host or cells: primary mouse marrow osteoclasts (RANKL-differentiated)
# Description: Immunoprecipitations: To further test whether enoxacin disrupts the capacity of V-ATPase to interact with microfilaments, immunoprecipitations are performed from soluble extracts of osteoclasts that had been treated with enoxacin or vehicle control using anti-E subunit and anti-a3 subunit antibodies developed by the present inventors (Zuo, J., et al. J. Bone Miner. Res. 2006, 21:714-721; Lee, B. S., et al. J. Bone Miner. Res., 1999, 14:2127-2136). It is expected that treatments of control extracts with enoxacin after cells are homogenized, but prior to immunoprecipitation, reduces the amount of F-actin attached to the immunoprecipitated V-ATPase.
# [6] = test system: mature osteoclasts on bone slices; assay: ruffled membrane formation / V-ATPase trafficking in mature osteoclasts on bone slices (anti-E subunit antibody); type: cell-based
# Description: FIG. 7 depicts that enoxacin (10 μM) blocks ruffled membrane formation. Mature osteoclasts on bone slices were treated with enoxacin or vehicle control for 3 days, then fixed and labeled with an anti-E subunit antibody. […] Arrows point to representative osteoclasts; The present inventors also tested the effects of enoxacin on osteoclasts that were already mature and loaded onto bone slices. In this experiment, mature osteoclasts on bone slices were treated with enoxacin or vehicle control for 3 days, then fixed and labeled with an anti-E subunit antibody. Control osteoclasts produced many ruffled membranes.
# GW bodies = assay: GW body formation; type: cell-based, mouse
# Description: GW bodies: GW bodies have been reported to be correlated with miRNA activity (Pauley, K. M., et al. EMBO Rep. 2006, 7:904-910; Lian, S., et al. Cell Cycle 2006, 5:242-245). Enoxacin, an enhancer of miRNA activity, is predicted to increase the number of GW bodies present and/or increase the size of GW bodies. To test whether enoxacin affects GW body formation, calcitriol-stimulated mouse marrow cultures, RANKL-stimulated primary hematopoietic cells and primary calvarial osteoblasts are treated with enoxacin. A dose response curve using doses above and below the IC50 dose is performed for inhibition of osteoclast formation and bone resorption. Osteoclast formation, staining and enumerating TRAP+ cells, and ruffled membrane formation are examined, by treating preformed osteoclasts on bone slices. Cells are fixed at various time points after treatment with enoxacin, and stain with polyclonal antibody against GW bodies and monoclonal anti-DCP1. The number of GW bodies in at least 100 randomly sampled cells is counted. The number of GW bodies is divided by the number of nuclei/cell, as determined by counting DAPI stained nuclei. This experiment is repeated in triplicate. Counts are performed by pre-calibrated assistants who are blinded to the nature of the experiment. Images are taken using a Zeiss Axiovert 200 M microscope and a Zeiss AxioCam MRm camera using the 40×0.75 NA objective.
# [7] = target: T2, interaction between recombinantly-expressed B2 subunit and pure rabbit muscle F-actin (Homo sapiens, UniProt P21281); assay: pelleting assay of B subunit binding to F-actin; details: 100 uM inhibitor compound; recombinant B subunit 1 μM, F-actin 2 μM; densitometry of SDS-PAGE gels; read-out: % inhibition
# T2 construct: made in house
# Description: Twenty-one small molecules are tested for their ability to block interaction between recombinantly-expressed B2 subunit and pure rabbit muscle F-actin.
# Recombinant B subunit (1 μM) plus/minus F-actin (2 μM)) plus/minus 100 uM inhibitor compounds were incubated for 10 minutes in 20 mM Tris/HCl (pH 7.5), 100 mM NaCl, 1 mM MgCl2, 0.2 mM CaCl2, 0.5 mM ATP, 0.2 mM DTT, then subjected to ultracentrifugation at 180,000×g for 45 min. Supernatants and pellets were collected in SDS-PAGE sample buffer, separated by SDS-PAGE, stained with Coomassie Blue, and densitometry was performed using a Flurchem 8000 (Alpha Innotech, San Leandro Calif.).
# The percent inhibition was determined by densitometry of SDS-PAGE gels. The raw densitometric number obtained of the recombinant B subunit band that was pelleted with F-actin, but with no compound present, represented 0% inhibition. The amount of the raw densitometric number of the amount of recombinant B subunit that pelleted with no actin present, but with compound, represented 100% inhibition. The amount of recombinant B subunit that pelleted with actin and the compound being tested was placed as a percentage assuming a linear response.
# osteoblast formation = osteoblast formation in mouse marrow cultures, judged by alkaline phosphatase expressing cells; type: cell-based; details: 1-10 μM
# Description: Enoxacin and Binhib 2 were then tested for their effects on osteoclastogenesis stimulated by calcitriol in mouse marrow cultures. The mixed cultures represent a model for the complex interactions that regulate bone resorption in vivo.
# In addition, at 1-10 μM enoxacin, osteoclast formation was inhibited while osteoblast formation, judged by alkaline phosphatase expressing cells, was not affected. And, at level of 100 μM, enoxacin blocked 90% of the B subunit from binding F-actin.
# T1 sequence (P62814 whole entry): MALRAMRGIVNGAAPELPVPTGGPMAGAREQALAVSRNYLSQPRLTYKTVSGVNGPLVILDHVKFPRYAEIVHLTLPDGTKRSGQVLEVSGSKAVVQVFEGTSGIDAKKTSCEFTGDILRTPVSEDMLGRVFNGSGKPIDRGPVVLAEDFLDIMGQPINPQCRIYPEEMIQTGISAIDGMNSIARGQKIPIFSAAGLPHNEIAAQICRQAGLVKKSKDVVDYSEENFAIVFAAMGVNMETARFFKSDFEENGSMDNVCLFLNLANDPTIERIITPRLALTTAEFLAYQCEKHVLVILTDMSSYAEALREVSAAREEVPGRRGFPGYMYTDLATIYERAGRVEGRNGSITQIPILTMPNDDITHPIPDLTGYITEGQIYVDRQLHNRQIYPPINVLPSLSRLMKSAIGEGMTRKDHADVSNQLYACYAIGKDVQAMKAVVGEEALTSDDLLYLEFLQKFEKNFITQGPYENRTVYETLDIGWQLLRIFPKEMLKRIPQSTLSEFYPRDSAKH
# T2 sequence (P21281 whole entry): as the sequence (P62814 whole entry) above, with M25A, A26V, K460R, T464A, Y474F counted along it
amount of F-actin attached to the immunoprecipitated V-ATPase [5],V-ATPase trafficking to ruffled membranes in mature osteoclasts ([6]; 10 μM),"ruffled membrane formation ([6]; 10 μM, 3 days)",ruffled membrane formation ([6]; concentration not given),"E subunit labeling distribution ([6]; mature osteoclasts on bone slices, 3 days)",inhibition at 100 µM [7] [%],Structure (SMILES),bone resorption compared to control [1],reduction of actin ring numbers (mouse marrow osteoclasts),effects on osteoclast formation compared with enoxacin [2],formation of osteoclasts ([3]; 1 μM),osteoclast formation ([3]; 1-10 μM),"IC50 ([3]; Osteoclast, calcitriol-stimulated mouse marrow cultures) [nM]",osteoclast formation ([3]; concentration not given),"osteoclast formation ([3]; single dose at the onset of the marrow culture period, end of 7 Days)",ruffled membranes of osteoclasts along the bone surface [4],number and/or size of GW bodies (GW bodies),"osteoblast formation, judged by alkaline phosphatase expressing cells (osteoblast formation)"
,,,,,,"CCn1cc(C(=O)O)c(=O)c2cc(F)c(N3CCN(CC(P(=O)(O)O)P(=O)(O)O)CC3)nc21 [bis-enoxacin, 7-(4-(2,2-Diphosphonoethyl)piperazin-1-yl)-1-ethyl-6-fluoro-4-oxo-1,4-dihydro-1,8-naphthyridine-3-carboxylic acid]",reduced,approximately 60%,identical effects,,,,,,,,
reduces,completely inhibited,blocks,disrupted,perinuclear distribution,92,"CCn1cc(C(=O)O)c(=O)c2cc(F)c(N3CCNCC3)nc21 [enoxacin, 1-ethyl-6-fluoro-4-oxo-7-(piperazin-1-yl)-1,4-dihydro-1,8-naphthyridine-3-carboxylic acid]",,,,significantly reduced,inhibited,1000,inhibits,dramatic reductions,does not have ruffled membranes,increase,not affected
